The results in this text go back to ChEMBL document CHEMBL3045592, “Studies of O,O-dimethyl α-(2,4-dichlorophenoxyacetoxy)ethylphosphonate (HW02) as a new herbicide. 1. Synthesis and herbicidal activity of HW02 and analogues as novel inhibitors of pyruvate dehydrogenase complex” (J Agric Food Chem, 2011).

What all share (type): functional
Experiment [1] relates to Brassica rapa subsp. oleifera. The experiment in a line: Pre-emergence herbicidal activity against Brassica rapa subsp. oleifera Si Yue Man assessed as growth inhibition at 1500 ai g/ha after 20 days by green house test.
The subject of experiment [2] is Amaranthus retroflexus. The experiment in a line: Post-emergence herbicidal activity against Amaranthus retroflexus assessed as growth inhibition at 1500 ai g/ha after 20 days by green house test.
For experiment [3], the system named is Digitaria sanguinalis. Briefly: Post-emergence herbicidal activity against Digitaria sanguinalis (hairy crabgrass) assessed as growth inhibition at 1500 ai g/ha after 20 days by green house test.
For experiment [4], the system named is Medicago sativa. The experiment in a line: Pre-emergence herbicidal activity against Medicago sativa (alfalfa) assessed as growth inhibition at 1500 ai g/ha after 20 days by green house test.
In experiment [5] the test system is Amaranthus retroflexus. Briefly: Pre-emergence herbicidal activity against Amaranthus retroflexus assessed as growth inhibition at 1500 ai g/ha after 20 days by green house test.
Experiment [6] deals with Medicago sativa. The experiment in a line: Post-emergence herbicidal activity against Medicago sativa (alfalfa) assessed as growth inhibition at 1500 ai g/ha after 20 days by green house test.
Experiment [7] has as its system Brassica rapa subsp. oleifera. The experiment in a line: Post-emergence herbicidal activity against Brassica rapa subsp. oleifera Si Yue Man assessed as growth inhibition at 1500 ai g/ha after 20 days by green house test.
In experiment [8] the test system is Digitaria sanguinalis. The experiment in a line: Pre-emergence herbicidal activity against Digitaria sanguinalis (hairy crabgrass) assessed as growth inhibition at 1500 ai g/ha after 20 days by green house test.
Experiment [9] concerns Echinochloa crus-galli. Briefly: Pre-emergence herbicidal activity against Echinochloa crus-galli (barnyard grass) assessed as growth inhibition at 1500 ai g/ha after 20 days by green house test.
Experiment [10] relates to Echinochloa crus-galli. The experiment in a line: Post-emergence herbicidal activity against Echinochloa crus-galli (barnyard grass) assessed as growth inhibition at 1500 ai g/ha after 20 days by green house test.

Turning to `COP(=O)(OC)C(C)OC(=O)COc1cccc(C)c1C` (stereo not given), the “growth inhibition (GI)” value in experiment [1] is on record as 90%; in the experiment with Amaranthus retroflexus [2] it was 50%; with Digitaria sanguinalis [3] it was “<=50%”; in the experiment on Medicago sativa [4] it was 75%; in the experiment with Amaranthus retroflexus [5], 75%; with Medicago sativa [6], 50%. Also, the “growth inhibition (GI)” value in [7] is on record as 75%; with Digitaria sanguinalis [8] it was “<=50%”; with Echinochloa crus-galli [9] it was 75%; with Echinochloa crus-galli [10] it was 50%.
Regarding `COP(=O)(OC)C(OC(=O)COc1ccc(F)cc1)c1cccc([N+](=O)[O-])c1` (stereo not given), the “growth inhibition (GI)” value is given as “<=50%” in experiment [1]; 75% in the experiment with Amaranthus retroflexus [2]; 50% with Digitaria sanguinalis [3]; 75% in the experiment on Medicago sativa [4]; 75% in the experiment on Amaranthus retroflexus [5]; 50% in the experiment on Medicago sativa [6]. Moreover, the “growth inhibition (GI)” value in experiment [7] was determined as 50%; with Digitaria sanguinalis [8] it was 90%; with Echinochloa crus-galli [9], 50%; in the experiment with Echinochloa crus-galli [10], 50%.
As to `COP(=O)(OC)C(C)OC(=O)COc1cc(F)cc(F)c1` (stereo not given), the “growth inhibition (GI)” value (in [1]; with Amaranthus retroflexus [2]; in the experiment on Digitaria sanguinalis [3]; in the experiment on Medicago sativa [4]; with Amaranthus retroflexus [5]; with Medicago sativa [6]) was “<=50%” in each case. The “growth inhibition (GI)” value (in experiment [7]; with Digitaria sanguinalis [8]; with Echinochloa crus-galli [9]; in the experiment with Echinochloa crus-galli [10]) was “<=50%” throughout.
With `COP(=O)(OC)C(OC(=O)COc1ccc(F)cc1Cl)c1cccc([N+](=O)[O-])c1` (stereo not given), the “growth inhibition (GI)” value in experiment [1] was 90%; in the experiment with Amaranthus retroflexus [2], 90%; in the experiment with Digitaria sanguinalis [3], 50%; in the experiment with Medicago sativa [4], 90%; in the experiment with Amaranthus retroflexus [5], 90%; with Medicago sativa [6], 50%. Also, the “growth inhibition (GI)” value in experiment [7] is given as 75%; with Digitaria sanguinalis [8] it was 90%; in the experiment with Echinochloa crus-galli [9], 90%; in the experiment on Echinochloa crus-galli [10] it was 75%.
In the case of `COP(=O)(OC)C(OC(=O)COc1ccc(Cl)cc1Cl)C(Cl)(Cl)Cl` (stereo not given), the “growth inhibition (GI)” value is recorded as 90% in [1]; 90% with Amaranthus retroflexus [2]; 50% in the experiment with Digitaria sanguinalis [3]; 90% in the experiment with Medicago sativa [4]; 90% in the experiment with Amaranthus retroflexus [5]; 50% in the experiment on Medicago sativa [6]. Further, the “growth inhibition (GI)” value in [7] was found to be 90%; with Digitaria sanguinalis [8] it was 90%; in the experiment with Echinochloa crus-galli [9] it was 90%; with Echinochloa crus-galli [10] it was 50%.
As for `COP(=O)(OC)C(OC(=O)COc1ccc(F)c(Cl)c1)C(Cl)(Cl)Cl` (stereo not given), the “growth inhibition (GI)” value in experiment [1] was “<=50%”; with Amaranthus retroflexus [2] it was 90%; with Digitaria sanguinalis [3], “<=50%”; with Medicago sativa [4], 50%; with Amaranthus retroflexus [5], 50%; in the experiment on Medicago sativa [6] it was 50%. Also, the “growth inhibition (GI)” value in experiment [7] was 75%; with Digitaria sanguinalis [8], 75%; in the experiment on Echinochloa crus-galli [9] it was 50%; in the experiment with Echinochloa crus-galli [10] it was 50%.
For the compound `COP(=O)(COC(=O)COc1ccc(C(F)(F)F)cc1)OC`, the “growth inhibition (GI)” value is given as “<=50%” in [1]; 75% with Amaranthus retroflexus [2]; “<=50%” in the experiment with Digitaria sanguinalis [3]; “<=50%” in the experiment on Medicago sativa [4]; “<=50%” with Amaranthus retroflexus [5]; “<=50%” with Medicago sativa [6]. For the same compound, the “growth inhibition (GI)” value (in [7]; in the experiment on Digitaria sanguinalis [8]; in the experiment with Echinochloa crus-galli [9]; in the experiment on Echinochloa crus-galli [10]) was “<=50%” each time.
With `COP(=O)(OC)C(OC(=O)COc1ccc(C(F)(F)F)cc1)c1ccccc1` (stereo not given), the “growth inhibition (GI)” value (in experiment [1]; in the experiment on Amaranthus retroflexus [2]; in the experiment with Digitaria sanguinalis [3]; in the experiment on Medicago sativa [4]; with Amaranthus retroflexus [5]; in the experiment with Medicago sativa [6]) was “<=50%” each time. The “growth inhibition (GI)” value (in experiment [7]; with Digitaria sanguinalis [8]; in the experiment on Echinochloa crus-galli [9]; in the experiment with Echinochloa crus-galli [10]) was “<=50%” in each case.
As to `COP(=O)(OC)C(OC(=O)COc1c(Cl)cccc1Cl)c1cccc([N+](=O)[O-])c1` (stereo not given), the “growth inhibition (GI)” value (in experiment [1]; in the experiment with Amaranthus retroflexus [2]; with Digitaria sanguinalis [3]; with Medicago sativa [4]; in the experiment on Amaranthus retroflexus [5]; in the experiment on Medicago sativa [6]) was “<=50%” in each case. In addition, the “growth inhibition (GI)” value (in [7]; in the experiment with Digitaria sanguinalis [8]; in the experiment with Echinochloa crus-galli [9]; in the experiment with Echinochloa crus-galli [10]) was “<=50%” throughout.
In the case of `COP(=O)(OC)C(OC(=O)COc1cccc(C(F)(F)F)c1)c1cccc([N+](=O)[O-])c1` (stereo not given), the “growth inhibition (GI)” value is listed as 50% in experiment [1]; “<=50%” in the experiment with Amaranthus retroflexus [2]; “<=50%” with Digitaria sanguinalis [3]; 50% with Medicago sativa [4]; 50% with Amaranthus retroflexus [5]; “<=50%” in the experiment with Medicago sativa [6]. The “growth inhibition (GI)” value is 50% in [7], “<=50%” in the experiment with Digitaria sanguinalis [8], “<=50%” in the experiment on Echinochloa crus-galli [9] and 50% in the experiment on Echinochloa crus-galli [10].
Turning to `COP(=O)(OC)C(C)OC(=O)COc1ccc(Cl)c(C)c1` (stereo not given), the “growth inhibition (GI)” value in [1] was 90%; with Amaranthus retroflexus [2], 50%; in the experiment on Digitaria sanguinalis [3] it was “<=50%”; in the experiment with Medicago sativa [4], 75%; in the experiment on Amaranthus retroflexus [5], 75%; with Medicago sativa [6] it was 50%. For the same compound, the “growth inhibition (GI)” value in experiment [7] is given as 50%; in the experiment on Digitaria sanguinalis [8] it was 75%; in the experiment on Echinochloa crus-galli [9], 75%; in the experiment with Echinochloa crus-galli [10], “<=50%”.
Consider `COP(=O)(OC)C(C)OC(=O)COc1ccc(C)cc1` (stereo not given), for which the “growth inhibition (GI)” value is listed as 75% in experiment [1]; 50% in the experiment on Amaranthus retroflexus [2]; “<=50%” in the experiment on Digitaria sanguinalis [3]; 75% with Medicago sativa [4]; 75% with Amaranthus retroflexus [5]; 50% in the experiment with Medicago sativa [6]. Besides, the “growth inhibition (GI)” value in [7] is reported as 50%; with Digitaria sanguinalis [8], “<=50%”; with Echinochloa crus-galli [9] it was 50%; in the experiment with Echinochloa crus-galli [10] it was 50%.
Turning to `COP(=O)(OC)C(C)OC(=O)COc1ccc(Br)cc1` (stereo not given), the “growth inhibition (GI)” value was “<=50%” in experiment [1]; 50% with Amaranthus retroflexus [2]; “<=50%” in the experiment with Digitaria sanguinalis [3]; “<=50%” in the experiment with Medicago sativa [4]; “<=50%” in the experiment on Amaranthus retroflexus [5]; 50% in the experiment on Medicago sativa [6]. Moreover, the “growth inhibition (GI)” value in experiment [7] is on record as 75%; in the experiment on Digitaria sanguinalis [8], “<=50%”; with Echinochloa crus-galli [9] it was “<=50%”; in the experiment with Echinochloa crus-galli [10] it was “<=50%”.
For the compound `COP(=O)(OC)C(OC(=O)COc1ccc(C(F)(F)F)cc1[N+](=O)[O-])c1cccc([N+](=O)[O-])c1` (stereo not given), the “growth inhibition (GI)” value (in [1]; in the experiment with Amaranthus retroflexus [2]; with Digitaria sanguinalis [3]; in the experiment with Medicago sativa [4]; in the experiment on Amaranthus retroflexus [5]; in the experiment with Medicago sativa [6]) was “<=50%” throughout. Moreover, the “growth inhibition (GI)” value (in experiment [7]; in the experiment on Digitaria sanguinalis [8]; in the experiment on Echinochloa crus-galli [9]; in the experiment on Echinochloa crus-galli [10]) was “<=50%” throughout.
Regarding `COP(=O)(OC)C(C)OC(=O)COc1cccc(F)c1` (stereo not given), the “growth inhibition (GI)” value (in [1]; in the experiment on Amaranthus retroflexus [2]; in the experiment with Digitaria sanguinalis [3]; in the experiment with Medicago sativa [4]; in the experiment on Amaranthus retroflexus [5]; in the experiment on Medicago sativa [6]) was “<=50%” throughout. Further, the “growth inhibition (GI)” value (in experiment [7]; with Digitaria sanguinalis [8]; in the experiment with Echinochloa crus-galli [9]; in the experiment on Echinochloa crus-galli [10]) was “<=50%” in each case.
On to `COP(=O)(OC)C(OC(=O)COc1cc(C)ccc1Cl)c1cccc([N+](=O)[O-])c1` (stereo not given), for which the “growth inhibition (GI)” value (in experiment [1]; with Amaranthus retroflexus [2]; in the experiment with Digitaria sanguinalis [3]; with Medicago sativa [4]; with Amaranthus retroflexus [5]; with Medicago sativa [6]) was “<=50%” throughout. Also, the “growth inhibition (GI)” value (in experiment [7]; with Digitaria sanguinalis [8]; in the experiment with Echinochloa crus-galli [9]; in the experiment with Echinochloa crus-galli [10]) was “<=50%” throughout.
